Test results taken from patent US20050014181A1, “Methods and compositions for the assessment of polymer assembly” (priority 2003, published 2005).

Key:
[1] = system: SMC-mediated collagen fibrillogenesis; assay: Treatment effects on SMC-mediated collagen fibrillogenesis (FITC-labeled collagen assembly assay, fluorescence plate reader); format: cell-based, mouse; parameters: % fibrillogenesis of no treatment control / effect of treatment on SMC-assisted collagen fibrillogenesis (FIG. 5A-B) / effect of treatment on collagen fibrils (FIG. 5C): unit of the concentration uncertain; conditions: for % fibrillogenesis of no treatment control: 1 (unit uncertain) of compound (smallest concentration used), green fluorescence normalized by cell density
Procedure: (§1) In one embodiment, the assay consists of adding a solution of FITC-labeled protein to cultured cells in the presence or absence of various treatments, then returning the cells to the incubator (37° C., 5% CO2) for various periods of time. Supramolecular protein assembly can be followed in time as a gain of fluorescence using a fluorescence plate reader, or by confocal microscopy with live cells or after fixation of cells. Specifically, for the development of this assay, SMC were used that had been plated into black clear-bottomed 96-well tissue culture-treated plates (Fisher) at 10,000 cells per well in 100 µL of DMEM+10% FBS 2 days prior to performing the assay.
After 24 h, the culture medium was changed to DMEM without FBS to promote cell quiescence, then SMC were returned to the incubator (37° C., 5% CO2) for an additional 24 h. Before the start of the assay, the culture medium was aspirated from each well and replaced with 100 µL of FITC-labeled collagen, BSA, or denatured collagen in DMEM without FBS, final concentration between […]. The cells were returned to the incubator for time periods up to 24 h.
(§2) At the end of the assay, the culture medium was aspirated and replaced with 10% buffered formalin (Fisher) for 10 min. For normalization of results, cell nuclei were counterstained using HOECHST [500 ng/mL in phosphate-buffered saline (PBS), pH 7.4] for 5 min. The wells subsequently were washed two times with PBS, then 100 µL of PBS were added to each well and the intensity of the fluorescence was measured with a fluorescence plate reader (CytoFluor® series 4000, PerSeptive Biosystems) using the following settings for protein assembly: ex=480 nm, em=530 nm, gain 85, and ex=360 nm, em=460 nm, gain 80 for cell nuclei.
In each quantitative assay, twelve wells of a 96-well plate were used for each condition. Average background readings were obtained from wells without cells or without labeled collagen monomer solution (six each) to ensure that the assay measured only the cell-assisted protein assembly.
To assess the ability of our assay to detect the effects of treatments that interfere with cell cytoskeleton, and therefore may affect fibrillogenesis, SMC were pretreated with […] of cytochalasin D, a chemical that disrupts organization of the actin cytoskeleton, for 30 min prior to the assay. The same concentrations were maintained throughout the assay. Retinoic acid, which has the opposite effect, stiffening SMC cytoskeleton, was added at […] of final concentrations.
To test whether the assay can detect formation of fibrils by incorporating de novo synthesized endogenous collagen, effect of treatments that should directly affect this process were investigated. Ascorbic acid, which enhances the triple helix organization of de novo synthesized collagen, was added at 5, 10, and 50 µM of final concentrations to the SMC culture medium for 24 h prior to the assay and maintained throughout the assay. Homocysteine thiolactone, which is a lysyl oxidase inhibitor and thus impairs the higher organization of collagen, was used at 5, 10, 50, 100, and 500 µM of final concentration in the SMC culture media. To assess the potential effects of these treatments, fibrillogenesis was calculated as the percentage of fibrillogenesis mediated by nontreated SMC.

mouse aortic SMC = assay: Protein assembly assay: FITC-labeled protein added to mouse aortic SMC (plate reader / fluorescence microscopy); format: cell-based; conditions: labeled protein incubated with SMC for 24 h
Procedure: as §1, with “assay. […]” for “assay.”
as §2, with “For normalization of results, cell nuclei were counterstained using HOECHST [500 ng/mL in phosphate-buffered saline (PBS), pH 7.4] for 5 min.” left out
In each quantitative assay, twelve wells of a 96-well plate were used for each condition. […]

SMC = assay: SDS-PAGE / phosphoimager detection of FITC-labeled protein recovered after incubation with SMC; format: cell-based; conditions: 50 or 100 mg/mL, 24 h with SMC in culture
Procedure: SMC were plated in 6-well tissue culture plates at a density of 500,000 cells per well. After 24 h, the media was aspirated and replaced with 1 mL of serum-free media containing 50 or 100 µg/mL of FITC-labeled BSA, collagen, or denatured collagen and placed back in a 37° C., 5% CO2 incubator for 24 h for assembly. The SMC cultured with labeled proteins then were rinsed twice with PBS, after which cell extracts were taken using […] of acidified (0.02M of acetic acid) lysis buffer. Samples […] from each condition before and after culturing with SMC were run on an 1.5-mm SDS-PAGE gel (Biorad apparatus) for 2 h at 150 V. FITC-labeled protein bands were imaged using a phosphoimager (Storm 860, Molecular Dynamics) with the ability to detect green fluorescence.

Compound: NC1CCSC1=O (stereo not shown) [homocysteine thiolactone, Homocysteine thiolactone]
- effect on SMC-mediated collagen assembly ([1]; up to concentrations twice the IC50 value (5-500 M), data not shown): no effects

Compound: CC1=C(/C=C/C(C)=C/C=C/C(C)=C/C(=O)O)C(C)(C)CCC1 [retinoic acid, Retinoic acid]
- % fibrillogenesis of no treatment control [1]: 59.5±9.4%

Compound: O=C1O[C@H]([C@@H](O)CO)C(O)=C1O [ascorbic acid, Ascorbic acid]
- effect of treatment on collagen fibrils (FIG. 5C) ([1]; 5, 10, 50 (unit uncertain), added 24 h prior to the assay and maintained throughout): moderate, yet statistically significant, enhancement of collagen fibrils

Compound: C=C1[C@@H](C)[C@H]2[C@H](Cc3ccccc3)NC(=O)[C@]23[C@H](OC(C)=O)/C=C/[C@@](C)(O)C(=O)[C@@H](C)C/C=C/[C@H]3[C@@H]1O [cytochalasin D, Cytochalasin D]
- % fibrillogenesis of no treatment control [1]: 12.1±1.0%
- effect of treatment on SMC-assisted collagen fibrillogenesis (FIG. 5A-B) ([1]; increasing concentrations (1, 5, 10 (unit uncertain))): impairs the ability of SMC to facilitate fibrillogenesis

Compound: labeled BSA: FITC-labeled bovine serum albumin
- supramolecular assembly seen by fluorescence microscopy (mouse aortic SMC): No assembly was detected
- association of labeled protein with SMC monolayer (SDS-PAGE) (SMC): neither BSA nor denatured collagen was associated with cells
